Test [1] addresses NMDA receptor-ionophore complex (site labeled by [3H]MK-801). In words: Inhibition of [3H]MK-801 binding in rat cortical/hippocampal washed membrane preparations. Conditions: for IC50: read-out: IC50 (μM) vs. [3H]MK-801, rat cortical/hippocampal washed membranes.
In a further test the test system is NMDA receptor. In words: Inhibition of NMDA/glycine-induced increases in intracellular calcium in cultured rat cerebellar granule cells (RCGC). In kind it is cell-based. The following applies: read-out: IC50 (μM) vs. NMDA. On the technique in general: Calcium assays in cells follow changes in intracellular calcium, usually with a dye or a luminescent sensor.
Setting [2] is: NMDA/glycine-induced increases in intracellular calcium, cultured rat cerebellar granule cells.

Counter-ions that a name gives are not always drawn. Like-named read-outs stand apart in the source and are kept apart here. Marks after values point to notes of the source that are not given here. Some results are limits rather than exact numbers.

As for `NCC=C(c1ccccc1)c1cccc(F)c1` (racemic) [Compound 107, 3-(3-fluorophenyl)-3-phenyl-prop-2-ene-1-amine], the IC50 in test [1] was 3.83 µM; with NMDA receptor (setting [2]), 2.67 µM.

As to `CCC(NCCC(c1ccccc1)c1ccccc1)c1ccccc1OC` (racemic) [Compound 167, (R,S)-N-1-(2-methoxyphenylpropyl)-3,3-diphenylpropylamine], the results for the IC50 (in test [1]; in the test with NMDA receptor (setting [2])) were 14.5 µM and 0.08 µM, respectively.

`COc1ccc(C(CCN)c2cccc(F)c2)cc1F` (racemic) [Compound 173, (R,S)-3-(3-Fluoro-4-methoxy)-3-(3-fluorophenyl)propylamine maleate]: the half-inhibitory concentration (IC50) was 24.1 µM in test [1] and 22.9 µM in the test with NMDA receptor (setting [2]).

For `COc1ccccc1CC(=O)NC(CC(N)=O)C(=O)NCCCCCNCCCNCCCNC(=O)C(N)CCCNC(=N)N` (stereo not shown) [Compound 5], the values for the half-maximal inhibitory concentration (IC50) (in test [1]; in the test with NMDA receptor (setting [2]); in the test on NMDA receptor (TFA salt)) were 15.2 µM, 0.102 µM and 0.07 µM, respectively.

For `COc1ccccc1CC(=O)NC(Cc1ccccc1)C(=O)NCCCCCNCCCNCCCNC(=O)C(N)CCCNC(=N)N` (stereo not shown) [Compound 6], the “% inhibition of [3H]MK-801 binding at the stated concentration (IC50 study incomplete)” value in test [1] (at 100 μM) is recorded as “(0% at 100 μM)^d”. For the same molecule, the values for the IC50 (in test [1]; in the test on NMDA receptor (setting [2])) were more than 100 µM and 0.129 µM, respectively.

For `COc1ccccc1CC(=O)NC(CC(C)C)C(=O)NCCCCCNCCCNCCCNC(=O)C(N)CCCNC(=N)N` (stereo not shown) [Compound 7], the half-inhibitory concentration (IC50) in test [1] was 129 µM; with NMDA receptor (setting [2]), 0.163 µM.

Turning to `COc1ccccc1CC(=O)NC(CC(N)=O)C(=O)NCCCCCNCCCNCCCNC(=O)C(N)CCCCN` (stereo not shown) [Compound 8], the concentration for half-maximal inhibition (IC50) came out at 219 µM in test [1] and 0.099 µM with NMDA receptor (setting [2]).

Regarding `N=C(N)NCCCC(N)C(=O)NCCCNCCCNCCCCCNC(=O)C(CC(N)=O)NC(=O)Cc1ccccc1O` (stereo not shown) [Compound 10], in test [1] (at 80 μM), the “% inhibition of [3H]MK-801 binding at the stated concentration (IC50 study incomplete)” value is “(57% at 80 μM)^d”. For the same molecule, the IC50 in the test with NMDA receptor (setting [2]) came out at 0.082 µM.

`NCCCOCCCCOCCCNC(=O)Cc1c[nH]c2ccc(Br)cc12` [Compound 16]: the IC50 in test [1] came out at 28.8 µM; with NMDA receptor (setting [2]) it was 5.1 µM.

Consider `NCCCOCCCCOCCCNC(=O)Cc1ccc2ccccc2c1` [Compound 17], for which the values for the half-maximal inhibitory concentration (IC50) (in test [1]; in the test on NMDA receptor (setting [2])) were 36.3 µM and 9.6 µM, respectively.

Take `COc1ccccc1CC(=O)NCCCOCCCCOCCCN` [Compound 18]: the IC50 in test [1] is 34 µM; in the test with NMDA receptor (setting [2]), 5.1 µM.

In the case of `CCC(N)CC(c1cccc(F)c1)c1cccc(F)c1` (stereo not shown) [Compound 23, 3,3-bis(3-fluorophenyl)-1-ethyl-1-propylamine], the IC50 was determined as 5.4 µM in test [1] and 0.267 µM with NMDA receptor (setting [2]).

With `COc1ccc(C(CCN)c2cccc(F)c2)cc1` (stereo not shown) [Compound 26, 3-(3-fluorophenyl)-3-(4-methoxyphenyl)-1-propylamine], the IC50 in test [1] stood at 34 µM; in the test on NMDA receptor (setting [2]) it was 27 µM.

As to `Cc1ccccc1C(CCN)c1cccc(F)c1` (stereo not shown) [Compound 27, 3-(3-fluorophenyl)-3-(2-methylphenyl)-1-propylamine], the IC50 in test [1] came out at 0.18 µM; in the test on NMDA receptor (setting [2]), 0.071 µM.

On to `Cc1cccc(C(CCN)c2cccc(F)c2)c1` (stereo not shown) [Compound 28, 3-(3-fluorophenyl)-3-(3-methylphenyl)-1-propylamine], for which the IC50 worked out at 2.3 µM in test [1] and 0.38 µM in the test with NMDA receptor (setting [2]).

With `Cc1ccc(C(CCN)c2cccc(F)c2)cc1` (stereo not shown) [Compound 29, 3-(3-fluorophenyl)-3-(4-methylphenyl)-1-propylamine], the values for the half-inhibitory concentration (IC50) (in test [1]; in the test with NMDA receptor (setting [2])) were 5.8 µM and 1.9 µM, respectively.

For `NCCC(c1cccc(F)c1)c1cccc(Cl)c1` (stereo not shown) [Compound 30, 3-(3-fluorophenyl)-3-(3-chlorophenyl)-1-propylamine], the IC50 in test [1] stood at 0.407 µM; with NMDA receptor (setting [2]), 0.035 µM.

Turning to `NCCC(c1ccccc1)c1cccc(F)c1` (stereo not shown) [Compound 32, 3-(3-fluorophenyl)-3-phenyl-1-propylamine], the figures for the IC50 (in test [1]; in the test on NMDA receptor (setting [2])) were 0.799 µM and 0.284 µM, respectively.

For the molecule `CCC(CCN)c1cccc(F)c1` (stereo not shown) [Compound 35], the values for the 50% inhibitory concentration (IC50) (in test [1]; in the test on NMDA receptor (setting [2])) were 25.1 µM and 6.2 µM, respectively.

As to `CC(C)C(CCN)c1cccc(F)c1` (stereo not shown) [Compound 37], the IC50 in test [1] came to 11.1 µM; with NMDA receptor (setting [2]), 0.944 µM.

On to `CC(N)C(C)C(c1cccc(F)c1)c1cccc(F)c1` (stereo not shown) [Compound 38, 3,3-bis(3-fluorophenyl)-1,2-dimethyl-1-propylamine], for which the 50% inhibitory concentration (IC50) in test [1] came to 2.3 µM; in the test with NMDA receptor (setting [2]) it was 0.407 µM.

Regarding `CCNC[C@H](C)C(c1cccc(F)c1)c1cccc(F)c1` [Compound 39], the 50% inhibitory concentration (IC50) turned out to be 2.9 µM in test [1] and 0.251 µM with NMDA receptor (setting [2]).

Regarding `CC(C)(CN)C(c1cccc(F)c1)c1cccc(F)c1` [Compound 41, 3,3-bis(3-fluorophenyl)-2,2-dimethyl-1-propylamine], the half-inhibitory concentration (IC50) stood at 14 µM in test [1] and 0.724 µM in the test on NMDA receptor (setting [2]).

As to `CC(N)CC(c1cccc(Cl)c1)c1cccc(Cl)c1` (stereo not shown) [Compound 43], the half-maximal inhibitory concentration (IC50) in test [1] is 7.5 µM; with NMDA receptor (setting [2]) it was 0.232 µM.

For the molecule `NCCC(c1cccc(F)c1)c1ccccc1F` (stereo not shown) [Compound 52, 3-(2-fluorophenyl)-3-(3-fluorophenyl)-1-propylamine], the IC50 in test [1] came out at 0.38 µM; in the test on NMDA receptor (setting [2]), 0.102 µM.

As to `NCCC(c1ccccc1F)c1ccccc1F` [Compound 53, 3,3-bis(2-fluorophenyl)-1-propylamine], the 50% inhibitory concentration (IC50) in test [1] is 4.2 µM; in the test with NMDA receptor (setting [2]), 0.217 µM.

As for `CCC(CN)C(c1cccc(F)c1)c1cccc(F)c1` (stereo not shown) [Compound 55, 3,3-bis(3-fluorophenyl)-2-ethyl-1-propylamine], the IC50 came out at 0.153 µM in test [1] and 0.035 µM in the test on NMDA receptor (setting [2]).

For `Cc1c(F)cccc1C(CCN)c1cccc(F)c1` (stereo not shown) [Compound 56, 3-(3-fluorophenyl)-3-(2-methyl-3-fluorophenyl)-1-propylamine], the values for the concentration for half-maximal inhibition (IC50) (in test [1]; in the test with NMDA receptor (setting [2])) were 0.955 µM and 0.218 µM, respectively.

With `COc1ccc(F)cc1C(CCN)c1cccc(F)c1` (stereo not shown) [Compound 61, 3-(3-fluorophenyl)-3-(3-fluoro-6-methoxyphenyl)-1-propylamine], the 50% inhibitory concentration (IC50) worked out at 0.324 µM in test [1] and 0.134 µM with NMDA receptor (setting [2]).

On to `COc1ccccc1C(CCN)c1ccccc1OC` [Compound 62, 3,3-bis(2-methoxyphenyl)-1-propylamine], for which the 50% inhibitory concentration (IC50) in test [1] worked out at 0.617 µM; in the test with NMDA receptor (setting [2]) it was 0.177 µM.

For the molecule `Cc1ccccc1C(CCN)c1ccccc1C` [Compound 65, 3,3-bis(2-methylphenyl)-1-propylamine], the figures for the IC50 (in test [1]; in the test on NMDA receptor (setting [2])) were 2 µM and 0.167 µM, respectively.

Take `CNC[C@H](C)C(c1cccc(F)c1)c1cccc(F)c1` [Compound 66]: the IC50 was found to be 1.2 µM in test [1] and 0.236 µM in the test with NMDA receptor (setting [2]).

Take `CNCCC(c1ccccc1)c1ccccc1` [Compound 67, N-methyl-3,3-diphenylpropylamine]: the values for the IC50 (in test [1]; in the test on NMDA receptor (setting [2])) were 2.9 µM and 11 µM, respectively.

`CN[C@@H](C)CC(c1cccc(F)c1)c1cccc(F)c1` [Compound 69]: the figures for the half-maximal inhibitory concentration (IC50) (in test [1]; in the test on NMDA receptor (setting [2])) were 0.366 µM and 0.224 µM, respectively.

`NCCC(c1ccncc1)c1cccc(F)c1` (stereo not shown) [Compound 79]: the IC50 in test [1] worked out at 10.2 µM; in the test with NMDA receptor (setting [2]), 12.6 µM.

As for `CCC(CC)(CN)C(c1cccc(F)c1)c1cccc(F)c1` [Compound 80, 3,3-bis(3-fluorophenyl)-2,2-diethyl-1-propylamine], the IC50 amounted to 182 µM in test [1] and 28 µM with NMDA receptor (setting [2]).

`NCC=C(c1ccccc1)c1ccccc1` [Compound 81, 3,3-diphenyl-prop-2-ene-1-amine]: the IC50 in test [1] turned out to be 6.1 µM; in the test with NMDA receptor (setting [2]) it was 1.4 µM.

For orientation: IC50 means the point on the concentration scale where inhibition reaches its midpoint.

(Values after patent US6750244B2, “Compounds active at a novel site on receptor-operated calcium channels useful for treatment of neurological disorders and diseases” (NPS Pharmaceuticals, Inc., priority 1993, dated 2004).)
